Reference: the NIST ThermoML archive (doi:10.1021/je100839v)
± gives the expanded uncertainty stated by the source.

Conditions: for vapor or sublimation pressure: Liquid, Closed cell (Static) method; for Glass transition temperature: DTA

## O [water]
313.85 K
  vapor or sublimation pressure: 8.1 ± 3.1 kPa
318.65 K
  vapor or sublimation pressure: 10.4 ± 3.2 kPa
323.45 K
  vapor or sublimation pressure: 13.2 ± 3.3 kPa
328.35 K
  vapor or sublimation pressure: 16.5 ± 3.3 kPa
333.35 K
  vapor or sublimation pressure: 20.1 ± 3.5 kPa
338.15 K
  vapor or sublimation pressure: 24.9 ± 3.7 kPa
343.05 K
  vapor or sublimation pressure: 30.6 ± 3.8 kPa

## CCOS(=O)(=O)[O-].CCn1cc[n+](C)c1 [1-ethyl-3-methylimidazolium ethyl sulfate]
  Glass transition temperature: -86.0 ± 3 °C

## CCCCn1cc[n+](C)c1.F[B-](F)(F)F [1-butyl-3-methylimidazolium tetrafluoroborate]
  Glass transition temperature: -85.0 ± 3 °C

## CCCCn1cc[n+](C)c1.[I-] [1-butyl-3-methylimidazolium iodide]
  Glass transition temperature: -62.0 ± 3 °C

## CCCCn1cc[n+](C)c1.N#C[S-] [1-butyl-3-methylimidazolium thiocyanate]
  Glass transition temperature: -89.0 ± 3 °C
